Patent US10059636B2, “Pesticide product including polyanionic polymers” (Verdesian Life Sciences, LLC, priority 2013, dated 2018)

System: cotton
Experiment: Phosphorous fixation field test with DAP on cotton
Format: in vivo
Conditions: for % by weight Phosphorous in Tissue: cotton tissue prior to first bloom
From the text: In a field test, two rates of phosphorous as diammonium phosphate (DAP) were broadcast-applied as a pre-plant fertilizer to a cotton field, namely 65 lbs of DAP per acre and 130 lbs of DAP per acre. The tests were two replications each of an unfertilized control, a DAP-only control, and DAP mixed with 0.25% w/w of a Class I polymer formulation. The formulation included 40% w/w of a partial zinc/sodium salt of T5 polymer, 5% w/w zinc, and the balance water, pH about 3,
Tissue tests were taken prior to first bloom from each plot, and the percent of phosphorous in the plant tissue was measured. After harvesting, lint yields were measured.

## N.N.O=P(O)(O)O [DAP, diammonium phosphate]
65 lbs of DAP per acre
  Lint Yield: 712 lbs/acre
  % by weight Phosphorous in Tissue: 0.41 % by weight
130 lbs of DAP per acre
  Lint Yield: 781 lbs/acre
  % by weight Phosphorous in Tissue: 0.41 % by weight
